The values below come from patent US20250041306A1, “TARGETED PROTEASE DEGRADATION (TED) PLATFORM” (EUBULUS BIOTHERAPEUTICS INC., priority 2021, published 2025).

Common to all, as to assay type: cell-based
Assay [1] has as its system Human Small Cell Lung Cancer H69. Put plainly: Cell proliferation experiment (Alarm blue), H69. As to conditions: H69 cells, 72 h culture, read-out: Anti cell proliferative activity EC50, H69. As to the method:
(§1) The cells were cultured in conventional ways, and the cells should be passed for at least 2 generations before plating. Cells at the logarithmic growth phase were collected, prepared into single cell suspensions and counted. The concentration of cells was adjusted to desired concentration, and cells were inoculated into a 96-well cell culture plate at 100 μl per well. 100 μL of complete medium of the test compound were added to each well, 2 replicate wells for each concentration were set up, and diluted with a 5-fold gradient, and continued to culture for 72 h. All cells were subjected to EC50 test for corresponding samples.
(§2) The fluorescence intensity of each well was detected using the Alarm blue method, and IC50 was calculated.
(§3) IC50 was calculated according to the following formula:
(§4) [formula] • wherein Min, Max and Slope represent the minimum, maximum and slope respectively.

Assay [2] relates to Human Small Cell Lung Cancer NCI-H82. Put plainly: Cell proliferation experiment (Alarm blue), H82. As to conditions: H82 cells, 72 h culture, read-out: Anti cell proliferative activity EC50, H82. The protocol: as §1, §2, §3, §4
The subject of assay [3] is human gastric carcinoma cells N87. As to the kind of experiment: Cell proliferation experiment (Alarm blue), N87. As to conditions: N87 cells, 72 h culture, read-out: Anti cell proliferative activity EC50, N87. As to the method: as §1, §2, §3, §4
The next assay deals with Human Colon Cancer HT-29. Put plainly: Cell proliferation experiment (Alarm blue), HT-29. As to conditions: HT-29 cells, 72 h culture, read-out: Anti cell proliferative activity EC50, HT-29. As to the method:
as §1, §2, §3, §4

The subject of assay [4] is Human Colon Cancer cells Colo205. As to the kind of experiment: Cell proliferation experiment (Alarm blue), Colo205. As to conditions: Colo205 cells, 72 h culture, read-out: Anti cell proliferative activity EC50, Colo205. The protocol:
as §1, §2, §3, §4

Like-named read-outs stand apart in the source and are kept apart here. Where only a bound is given, the exact number is not on record here.

The term EC50 denotes the concentration giving half of the maximal effect.

On to `CNC(=O)c1ccccc1Nc1nc(Nc2ccc(N3CCN(C(=O)NC4CCC(N(CCC#Cc5ccc6c(c5)CN(C5CCC(=O)NC5=O)C6=O)C(=O)OCc5ccc(NC(=O)[C@H](CC(N)=O)NC(=O)[C@H](C)NC(=O)[C@H](C)NC(=O)CCCCCN6C(=O)CC(SC[C@H](NC(=O)CC[C@H](NC(=O)c7ccc(NCc8cnc9nc(N)[nH]c(=O)c9n8)cc7)C(=O)O)C(=O)N[C@H](Cc7ccccc7)C(=O)N[C@H]7CSSC[C@@H](C(=O)N[C@H](CO)[C@@H](C)O)NC(=O)[C@H]([C@@H](C)O)NC(=O)[C@H](CCCCN)NC(=O)[C@@H](Cc8c[nH]c9ccccc89)NC(=O)[C@H](Cc8ccccc8)NC7=O)C6=O)cc5)CC4)CC3)cc2)ncc1Cl` (stereo partly drawn) [UB-181263], for which the EC50 in assay [1] is 192 nM; in assay [2] it was 53 nM; in assay [3], more than 1000 nM; in the assay with Human Colon Cancer HT-29, more than 1000 nM; in assay [4], 9.1 nM.
With `CNC(=O)c1ccccc1Nc1nc(Nc2ccc(N3CCN(C(=O)N[C@H]4CC[C@@H](N(CCC#Cc5ccc6c(c5)CN(C5CCC(=O)NC5=O)C6=O)C(=O)OC(C)C(C)SSC[C@H](NC(=O)CC[C@H](NC(=O)c5ccc(NCc6cnc7nc(N)[nH]c(=O)c7n6)cc5)C(=O)O)C(=O)N[C@H](Cc5ccccc5)C(=O)N[C@H]5CSSC[C@@H](C(=O)N[C@H](CO)[C@@H](C)O)NC(=O)[C@H]([C@@H](C)O)NC(=O)[C@H](CCCCN)NC(=O)[C@@H](Cc6c[nH]c7ccccc67)NC(=O)[C@H](Cc6ccccc6)NC5=O)CC4)CC3)cc2)ncc1Cl` (stereo partly drawn) [UB-181266], the concentration giving a half-maximal response (EC50) in assay [1] was more than 1000 nM; in assay [2] it was 152 nM; in assay [3], more than 1000 nM; in the assay with Human Colon Cancer HT-29, more than 1000 nM; in assay [4] it was 234 nM.
For the compound `CNC(=O)c1ccccc1Nc1nc(Nc2ccc(N3CCN(C(=O)N[C@H]4CC[C@@H](N(CCC#Cc5ccc6c(c5)CN(C5CCC(=O)NC5=O)C6=O)C(=O)OC(C)C(C)SSC[C@@H](NC(=O)CC[C@@H](NC(=O)c5ccc(NCc6cnc7nc(N)[nH]c(=O)c7n6)cc5)C(=O)O)C(=O)N[C@H](Cc5ccccc5)C(=O)N[C@H]5CSSC[C@@H](C(=O)N[C@H](CO)[C@@H](C)O)NC(=O)[C@H]([C@@H](C)O)NC(=O)[C@H](CCCCN)NC(=O)[C@@H](Cc6c[nH]c7ccccc67)NC(=O)[C@H](Cc6ccccc6)NC5=O)CC4)CC3)cc2)ncc1Cl` (stereo partly drawn) [UB-181267], the EC50 was more than 1000 nM in assay [1]; 168 nM in assay [2]; more than 1000 nM in assay [3]; more than 1000 nM with Human Colon Cancer HT-29; 519 nM in assay [4].
In the case of `CC[C@@H]1C(=O)N(C)c2cnc(Nc3ccc(-c4cn([C@H]5CC[C@@H](N(CCOCCC#Cc6cccc7c6CN(C6CCC(=O)NC6=O)C7=O)C(=O)OC(C)C(C)SSC[C@H](NC(=O)CC[C@H](NC(=O)c6ccc(NCc7cnc8nc(N)[nH]c(=O)c8n7)cc6)C(=O)O)C(=O)N[C@H](Cc6ccccc6)C(=O)N[C@H]6CSSC[C@@H](C(=O)N[C@H](CO)[C@@H](C)O)NC(=O)[C@H]([C@@H](C)O)NC(=O)[C@H](CCCCN)NC(=O)[C@@H](Cc7c[nH]c8ccccc78)NC(=O)[C@H](Cc7ccccc7)NC6=O)CC5)nn4)cc3OC)nc2N1C1CCCC1` (stereo partly drawn) [UB-181268], the half-maximal effective concentration (EC50) (in assay [1]; in assay [2]; in assay [3]; with Human Colon Cancer HT-29; in assay [4]) was more than 1000 nM throughout.
Regarding `CNC(=O)c1ccccc1Nc1nc(Nc2ccc(N3CCC(NCC#Cc4ccc5c(c4)CN(C4CCC(=O)NC4=O)C5=O)CC3)cc2)ncc1Cl` (stereo not drawn) [UB-181269], the EC50 is more than 1000 nM in assay [1] (Homo sapiens, NCI-H69); 11.6 nM in assay [2] (Homo sapiens, NCI-H82, 72 h); 28.8 nM in assay [3] (Homo sapiens, 72 h); 35.5 nM with Human Colon Cancer HT-29 (Homo sapiens); 10.7 nM in assay [4] (Homo sapiens, COLO 205, 72 h).
The corresponding values for `NC(=O)c1ccccc1Nc1nc(Nc2ccc(N3CCN(C(=O)N[C@H]4CC[C@@H](NC5CN(CC#Cc6ccc7c(c6)CN(C6CCC(=O)NC6=O)C7=O)C5)CC4)CC3)cc2)ncc1Cl` (stereo partly drawn) [UB-181270] are 454 nM, 147 nM, 258 nM, 951 nM and 218 nM.
In the same order, the values of `CNC(=O)c1ccccc1Nc1nc(Nc2ccc(N3CCN(C(=O)CNCCC#Cc4ccc5c(c4)CN(C4CCC(=O)NC4=O)C5=O)CC3)cc2)ncc1Cl` (stereo not drawn) [UB-181272] are more than 1000 nM, 19.1 nM, 23.1 nM, 332 nM and 21.1 nM.
The corresponding values for `NC(=O)c1ccccc1Nc1nc(Nc2ccc(N3CCN(C(=O)CNCCC#Cc4ccc5c(c4)CN(C4CCC(=O)NC4=O)C5=O)CC3)cc2)ncc1Cl` (stereo not drawn) [UB-181273] are 375 nM, 21.6 nM, more than 1000 nM, 56.2 nM and 21.4 nM.
Consider `NC(=O)c1ccccc1Nc1nc(Nc2ccc(N3CCN(C(=O)NC4CCN(CCNCCC#Cc5ccc6c(c5)CN(C5CCC(=O)NC5=O)C6=O)CC4)CC3)cc2)ncc1Cl` (stereo not drawn) [UB-181274], for which the EC50 in assay [1] (Homo sapiens, NCI-H69) was more than 1000 nM; in assay [2] (Homo sapiens, NCI-H82, 72 h) it was 27.7 nM; in assay [3] (Homo sapiens, 72 h) it was 18.2 nM; with Human Colon Cancer HT-29 (Homo sapiens), 522 nM; in assay [4] (Homo sapiens, COLO 205, 72 h), 49.4 nM.
On to `CC(OC(=O)N(CCC#Cc1ccc2c(c1)CN(C1CCC(=O)NC1=O)C2=O)C1CCC(NC(=O)N2CCN(c3ccc(Nc4ncc(Cl)c(Nc5ccccc5C(N)=O)n4)cc3)CC2)CC1)C(C)SSC[C@H](N)C(=O)N[C@H](Cc1ccccc1)C(=O)N[C@H]1CSSC[C@@H](C(=O)N[C@H](CO)[C@@H](C)O)NC(=O)[C@H]([C@@H](C)O)NC(=O)[C@H](CCCCN)NC(=O)[C@@H](Cc2c[nH]c3ccccc23)NC(=O)[C@H](Cc2ccccc2)NC1=O` (stereo partly drawn) [UB-181275], for which the EC50 in assay [1] was more than 1000 nM; in assay [2], 740 nM; in assay [3], more than 1000 nM; in the assay with Human Colon Cancer HT-29 it was 968 nM; in assay [4], 442 nM.
As to `NC(=O)c1ccccc1Nc1nc(Nc2ccc(C3CCN(C(=O)N[C@H]4C[C@@H](NCCC#Cc5ccc6c(c5)CN(C5CCC(=O)NC5=O)C6=O)C4)CC3)cc2)ncc1Cl` (stereo partly drawn) [UB-181279], the EC50 is more than 1000 nM in assay [1] (Homo sapiens, NCI-H69); 24.9 nM in assay [2] (Homo sapiens, NCI-H82, 72 h); more than 1000 nM in assay [3] (Homo sapiens, 72 h); 415 nM in the assay with Human Colon Cancer HT-29 (Homo sapiens); 65.2 nM in assay [4] (Homo sapiens, COLO 205, 72 h).
As for `CC(OC(=O)N(CCC#Cc1ccc2c(c1)CN(C1CCC(=O)NC1=O)C2=O)C1CCC(NC(=O)N2CCN(c3ccc(Nc4ncc(Cl)c(Nc5ccccc5C(N)=O)n4)cc3)CC2)CC1)C(C)SSC[C@H](NC(=O)CCOCCOCCOCCOCCOCCOCCOCCOCCNC(=O)CC[C@H](NC(=O)c1ccc(NCc2cnc3nc(N)[nH]c(=O)c3n2)cc1)C(=O)O)C(=O)N[C@H](Cc1ccccc1)C(=O)N[C@H]1CSSC[C@@H](C(=O)N[C@H](CO)[C@@H](C)O)NC(=O)[C@H]([C@@H](C)O)NC(=O)[C@H](CCCCN)CC(=O)[C@@H](Cc2c[nH]c3ccccc23)NC(=O)[C@H](Cc2ccccc2)NC1=O` (stereo partly drawn) [UB-181280], the EC50 in assay [1] is more than 1000 nM; in assay [2], 647 nM; in assay [3] it was more than 1000 nM; with Human Colon Cancer HT-29, more than 1000 nM; in assay [4] it was 1.9 nM.
